Test results taken from patent US11033547B2, “Carboxamide-pyrimidine derivatives as SHP2 antagonists” (Merck Patent GmbH, priority 2019, dated 2021).
Where two headings read alike, the source gives them in different places.

Legend:
[1] = target: Full length SHP2 protein (Recombinant Human SHP-2) (Homo sapiens, UniProt Q06124); assay: SHP2 biochemical assay (DiFMUP substrate, activating peptide IRSI_2pY); conditions: DiFMUP substrate, activating peptide IRSI_2pY, 60 min at RT; read-out: SHP-2 Biochemical assay IC50
Experimental: The inhibition of SHP2 by compounds of the invention was monitored using the surrogate substrate DiFMUP after protein activation by a peptide bearing two appropriately spaced phosphotyrosine. […] The generation of the DiFMU product by activated SHP2 was monitored through Fluorescence measurement with a PerkinElmer Envision reader.
The inhibitor dose response curves were analyzed with Genedata Screener.

[2] = test system: pERK level in KYSE520 cells; assay: p-Erk cellular assay in KYSE520 (Mesoscale); format: cell-based; conditions: 2 h incubation, read-out: pERK1/2 in KYSE520 IC50
Experimental: p-Erk Cellular Assay in MDA-MB-468 and KYSE520:
The effect of SHP2 inhibitors on pERK level was assessed using phospho-specific antibody using Mesoscale quantification platform. For measuring change in pERK levels using mesoscale, 30,000 cells of MDA MB468 and KYSE520 cells were plated in 96-well tissue culture treated plate in 175 ul volume of media. After an overnight incubation at 37° C., various SHP2 inhibitors were added in different concentration to each well maintaining duplicate wells across plates and incubated with compounds for 2 h at 37° C. followed by a wash with ice cold PBS buffer. The cells were then lysed in lysis buffer and processed and analyzed for p-ERK/ERK as per manufacturer's instructions (Mesoscale discovery, cat No. K15107D-3).

Compound	IC50 [1]	IC50 ([2]; Homo sapiens, KYSE-520, 2 h)	IC50 [2]
NC[C@@]12CCCC[C@@H]1CN(c1nc(N)c(-c3cccc(Cl)c3Cl)c(C(N)=O)n1)C2 (single isomer, unassigned) [Compound 100]	0.5 µM	12.8 µM	–
Cc1nc(N[C@@H]2CCC[C@H](N)C2)nc(C(N)=O)c1-c1cccc(Cl)c1Cl (atropisomer, axis not shown; (M)) [Compound 88, (4M)-2-{[(1R,3S)-3-aminocyclohexyl]amino}-5-(2,3-dichlorophenyl)-6-methylpyrimidine-4-carboxamide]	0.41 µM	4.25 µM	–
2-((S)-3-amino-3H-spiro[benzofuran-2,4′-piperidin]-1′-yl)-5-(2,3-dichlorophenyl)-6-methylpyrimidine-4-carboxamide [Compound 122]	0.017 µM	–	0.048 µM
NC[C@]12CCC[C@H]1CN(c1nc(N)c(-c3cccc(Cl)c3Cl)c(C(N)=O)n1)C2 (single isomer, unassigned) [Compound 104]	0.12 µM	2.25 µM	–
Cc1nc(N[C@H]2CC[C@@H](N)CC2)nc(C(N)=O)c1-c1cccc(Cl)c1Cl [Compound 93, 2-(4-Amino-cyclohexyl-amino)-5-(2,3-dichloro-phenyl)-6-methyl-pyrimidine-4-carboxylic acid amide]	2.3 µM	–	–
NC[C@@]12CCC[C@@H]1CN(c1nc(N)c(-c3cccc(Cl)c3Cl)c(C(N)=O)n1)C2 (atropisomer, axis not shown; (M)) [Compound 99, (5M)-2-[(3aR,6aS)-3a-(aminomethyl)octahydrocyclopenta[c]pyrrol-2-yl]-6-amino-5-(2,3-dichlorophenyl)pyrimidine-4-carboxamide]	3.7 µM	–	–
NC[C@@]12CCCC[C@@H]1CN(c1nc(N)c(-c3cccc(Cl)c3Cl)c(C(N)=O)n1)C2 (single isomer, unassigned) [Compound 102]	17 µM	–	–
Cc1nc(NC2CCCC2CN)nc(C(N)=O)c1-c1cccc(Cl)c1Cl (stereo not shown) [Compound 43, 2-(2-Aminomethyl-cyclopentylamino)-5-(2,3-dichloro-phenyl)-6-methyl-pyrimidine-4-carboxylic acid amide]	3.1 µM	–	–
Cc1nc(NC2CCC(CN)C2)nc(C(N)=O)c1-c1cccc(Cl)c1Cl (stereo not shown) [Compound 36, 2-(3-Aminomethyl-cyclopentylamino)-5-(2,3-dichloro-phenyl)-6-methyl-pyrimidine-4-carboxylic acid amide]	13 µM	–	–
CC1(N)CCN(c2nc(Cl)c(-c3cccc(F)c3)c(C(N)=O)n2)CC1 [Compound 19, 2-(4-Amino-4-methyl-piperidin-1-yl)-6-chloro-5-(3-fluorophenyl)-pyrimidine-4-carboxylic Acid Amide]	87 µM	–	–
Cc1nc(N2CCOC[C@H]2CN)nc(C(N)=O)c1-c1cccc(Cl)c1Cl (atropisomer, axis not shown; (P)) [Compound 47, (4P)-2-[(3R)-3-(aminomethyl)morpholin-4-yl]-5-(2,3-dichlorophenyl)-6-methylpyrimidine-4-carboxamide]	> 10 µM	–	–
NCC1CC2(CCN(c3nc(N)c(-c4cccc(Cl)c4Cl)c(C(N)=O)n3)CC2)CO1 (stereo not shown) [Compound 40, 6-amino-2-[3-(aminomethyl)-2-oxa-8-azaspiro[4.5]decan-8-yl]-5-(2,3-dichlorophenyl)pyrimidine-4-carboxamide]	3.9 µM	–	–
Cc1nc(N2CCC3(CC2)CC(F)(F)C[C@H]3N)nc(C(N)=O)c1-c1cccc(Cl)c1Cl (single isomer, unassigned) [Compound 96]	–	0.993 µM	–
NC(=O)c1nc(N2CCC3(CC2)Oc2ncccc2C3N)nc(N)c1-c1cccc(Cl)c1Cl (single isomer, unassigned) [Compound 129]	0.33 µM	–	–
NC[C@@H]1CN(c2nc(N)c(-c3cccc(Cl)c3Cl)c(C(N)=O)n2)C[C@H]1c1ccccc1 [Compound 51, 6-amino-2-[(3R,4R)-3-(aminomethyl)-4-phenylpyrrolidin-1-yl]-5-(2,3-dichlorophenyl)pyrimidine-4-carboxamide]	1.5 µM	–	–
